According to patent US10266871B2, “Measurement method for thrombin production” (DAIICHI SANKYO COMPANY, LIMITED, priority 2012, dated 2019):
“Also recorded” adds a separate entry of the source.

Assays:
[1] = test system: thrombin generation in human PRP; experiment: Studies regarding measurement conditions: ADP alone on thrombin generation in human PRP; type: cell-based; settings: ADP final concentration 5, 10 or 20 μM, no TF
[2] = test system: thrombin generation in human PRP; settings: Example 2; Edoxaban 40, 80 ng/mL; Ticagrelor 3 μg/mL; ADP 10 μM, TF 0.25 pM
Protocol: The obtained blood was centrifuged at room temperature at 150×g for 10 minutes, so that a supernatant was obtained as PRP. The residue obtained after separation of the PRP was centrifuged at room temperature at 2000×g for 10 minutes, so that a supernatant was obtained as platelet poor plasma (hereinafter also referred to as “PPP”). The PRP was diluted with the PPP, so that the number of platelets in the PRP could be 2×10^5 platelets/μL. The obtained PRP was left at 16° C. for 30 minutes or more, and it was then used for the measurement of thrombin generation.
10 μL of a 1% DMSO-containing saline was added to a 96-well plate, and 70 μL of the above obtained human PRP was then added thereto. […]
Five to seven minutes later, 20 μL of the heated FluCa-kit liquid (manufactured by Thrombinoscope BV) was added to the well, so that the reaction was initiated. Using a fluorophotometer (Fluoroskan Ascent, manufactured by Thermo Scientific), the fluorescence intensity at ex 390 nm/em 460 nm was measured at 37° C. for 150 minutes, and using Thrombinoscope software (manufactured by Thrombinoscope BV), Lag time (min), Time to Peak (min), ETP (nM×min), Peak (nM), and MaxR (nM/min) were calculated. […]
Subsequently, individual parameters were calculated in the same manner as that in the above “Studies regarding measurement conditions.” […]

Row | Structure (SMILES) | Effect of ADP alone on thrombin generation [1] | Effect on thrombin generation, agent used alone compared to controls [2]
1 | Nc1ncnc2c1ncn2[C@@H]1O[C@H](COP(=O)(O)OP(=O)(O)O)[C@@H](O)[C@H]1O [ADP, adenosine diphosphate] | provokes thrombin generation | 
2 | CCCSc1nc(N[C@@H]2C[C@H]2c2ccc(F)c(F)c2)c2nnn([C@@H]3C[C@H](OCCO)[C@@H](O)[C@H]3O)c2n1 [Ticagrelor] |  | suppresses the generation of thrombin; also recorded: significantly suppresses thrombin generation, in terms of Peak, Time to Peak, and MaxR
